In the supplement of paper PMC11208160:

test: recombinant UMI read abundance after kanamycin selection (control-corrected) (log10(CPM+1)); higher = more efficient recombination; extreme values may be limits of the assay; sequences stand for … in AGTGCAGAGAAAATCGGCCAGTTTTCTCTGCCTGCAGTCCGCATGCCGTGGGACCCCTTGGGTTCTAACCTGTTGCCTAGATTTATGCAGCGGACTGCCTTTCTCCCAAAGTGATAAACCGG…AGGTTGGTTTCACT; site = the 11-nt donor
Procedure, shortened: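 Reported values are log10(CPM+1) from a pooled Escherichia coli screen of donor and donor-binding-loop pairs for the IS621 bridge recombinase. Selection used IPTG (0.07 mM) plus kanamycin, against unselected plating, each in two replicates. Recombinant UMIs were amplified across the donor–target junction, sequenced, converted to CPM, averaged over replicates and scaled by control-derived factors.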
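Also: IS621 bridge recombinase in Escherichia coli cells against a fixed T5 target plasmid.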

| Sequence | recombinant UMI read abundance (log10) |
| --- | --- |
| ATCTAAACATGGACCGGTTTTCCCGGTAATCCGTATTTGAC (site ATCTAAACTGT) | 2.72 |
| ACAGTATCATGGACCGGTTTTCCCGGTAATCCGTATTTGCA (site AACGTATCTTG) | 2.46 |
| GAAAACCCATGGACCGGTTTTCCCGGTAATCCGTATTTGAT (site GAAAACCCTAT) | 0 |
| AGGTAATCATGGACCGGTTTTCCCGGTAATCCGTATTTGAG (site AGGTAATCTCT) | 2.83 |
| CCGTTTACATGGACCGGTTTTCCCGGTAATCCGTATTTGCT (site CTGTTTACTAG) | 0 |
| TCCAACCCATGGACCGGTTTTCCCGGTAATCCGTATTTGCC (site TCCAACCCTGG) | 0 |
| CGGAATGCATGGACCGGTTTTCCCGGTAATCCGTATTTGTT (site CGGAATGCTAA) | 2.84 |
| CCCTAGCCATGGACCGGTTTTCCCGGTAATCCGTATTTGCC (site CGCTAGCCTGG) | 0 |
| ACACAAACATGGACCGGTTTTCCCGGTAATCCGTATTTGTC (site ACACAAACTGA) | 2.41 |
| CTGCTAGCATGGACCGGTTTTCCCGGTAATCCGTATTTGCT (site CTGCTATCTAG) | 0 |
| TAGGATACATGGACCGGTTTTCCCGGTAATCCGTATTTGCA (site TAGAATACTTG) | 1.71 |
| CAGACGGCATGGACCGGTTTTCCCGGTAATCCGTATTTGGG (site CAGACGGCTCC) | 0.191 |
| TTTACACCATGGACCGGTTTTCCCGGTAATCCGTATTTGAC (site TGTACACCTGT) | 0 |
| ACACCCACATGGACCGGTTTTCCCGGTAATCCGTATTTGAG (site ACACCCACTCT) | 1.37 |
| TAAAGTACATGGACCGGTTTTCCCGGTAATCCGTATTTGTA (site TAAAGTACTTA) | 1.41 |
| TATTTGCCATGGACCGGTTTTCCCGGTAATCCGTATTTGTG (site TATTTGGCTCA) | 0.00691 |
| AGATCATCATGGACCGGTTTTCCCGGTAATCCGTATTTGCT (site CGATCATCTAG) | 0.477 |
| AATGTGTCATGGACCGGTTTTCCCGGTAATCCGTATTTGTC (site AATGTGTCTGC) | 0.999 |
| CGGAAGACATGGACCGGTTTTCCCGGTAATCCGTATTTGAA (site AGGAAGACTTG) | 0 |
| TTTAGCTCATGGACCGGTTTTCCCGGTAATCCGTATTTGTT (site TTTAGCTCTAA) | 0.0116 |
| GACTTGGCATGGACCGGTTTTCCCGGTAATCCGTATTTGGA (site GACTTGGCTTC) | 0.654 |
| AGTCCATCATGGACCGGTTTTCCCGGTAATCCGTATTTGGG (site AGTCCATCTCC) | 0.00252 |
| AGCCTAGCATGGACCGGTTTTCCCGGTAATCCGTATTTGTT (site AGCCTATCTAA) | 0.00805 |
| GTATGGCCATGGACCGGTTTTCCCGGTAATCCGTATTTGCA (site GAATGGCCTTG) | 0 |
| GCTTGCCCATGGACCGGTTTTCCCGGTAATCCGTATTTGAT (site GCTTGCCCTAT) | 0.0141 |

| Sequence | recombinant UMI read abundance (log10) |
| --- | --- |
| GTAGCTGCATGGACCGGTTTTCCCGGTAATCCGTATTTGTG (site TTAGCTGCTCA) | 0.0482 |
| ACAGTATCATGGACCGGTTTTCCCGGTAATCCGTATTTGCA (site TCAGTATCTTG) | 2.54 |
| AATTACGCATGGACCGGTTTTCCCGGTAATCCGTATTTGGA (site AATTAAGCTTC) | 0.428 |
| TTTCACCCATGGACCGGTTTTCCCGGTAATCCGTATTTGGG (site TTTCACCCTCC) | 0.00832 |
| GAGGAATCATGGACCGGTTTTCCCGGTAATCCGTATTTGCG (site AAGGAATCTCG) | 2.23 |
| GCATGTGCATGGACCGGTTTTCCCGGTAATCCGTATTTGGT (site GCATGTGCTAC) | 1.79 |
| CCAGGATCATGGACCGGTTTTCCCGGTAATCCGTATTTGAT (site CCAGGATCTAT) | 0 |
| CCCCGTCCATGGACCGGTTTTCCCGGTAATCCGTATTTGCA (site CCCGGTCCTTG) | 0.0123 |
| CCCATATCATGGACCGGTTTTCCCGGTAATCCGTATTTGTC (site CCTATATCTGA) | 0 |
| GATAGGACATGGACCGGTTTTCCCGGTAATCCGTATTTGAC (site GATCGGACTGT) | 0.114 |
| ACAGTCACATGGACCGGTTTTCCCGGTAATCCGTATTTGCA (site ACAGTATCTTG) | 1.84 |
| AGGAATCCATGGACCGGTTTTCCCGGTAATCCGTATTTGTA (site AGGAATCCTTA) | 0.615 |
| CGTCAGACATGGACCGGTTTTCCCGGTAATCCGTATTTGAG (site CGTCAGACTCT) | 1.16 |
| GAGCCGGCATGGACCGGTTTTCCCGGTAATCCGTATTTGAA (site GAGCCGGCTTT) | 0.241 |
| CAGTCGACATGGACCGGTTTTCCCGGTAATCCGTATTTGGT (site CAGTCGACTTC) | 0.56 |
| ACCTCGACATGGACCGGTTTTCCCGGTAATCCGTATTTGGG (site ACCTGGACTCC) | 0.0333 |
| TGGCCGTCATGGACCGGTTTTCCCGGTAATCCGTATTTGGC (site TGGCCGTCTGC) | 0.431 |
| AGCGGTCCATGGACCGGTTTTCCCGGTAATCCGTATTTGAC (site AGCGGTCCTGT) | 0 |
| CTGTCGGCATGGACCGGTTTTCCCGGTAATCCGTATTTGCC (site CTGTCGGCTGG) | 0 |
| GAAGATTCATGGACCGGTTTTCCCGGTAATCCGTATTTGTT (site GACGATTCTAA) | 0 |
| CTCCATGCATGGACCGGTTTTCCCGGTAATCCGTATTTGTC (site CTCCATGCTGA) | 2.3 |
| ACACATTCATGGACCGGTTTTCCCGGTAATCCGTATTTGAC (site ACACATGCTGT) | 0 |
| TTAGTCGCATGGACCGGTTTTCCCGGTAATCCGTATTTGCG (site GTAGTCGCTCG) | 0.00638 |
| CCCTAGGCATGGACCGGTTTTCCCGGTAATCCGTATTTGCC (site CCCTAGACTGG) | 0 |
| ACATACTCATGGACCGGTTTTCCCGGTAATCCGTATTTGCA (site ACATACTCTTG) | 2.8 |

| Sequence | recombinant UMI read abundance (log10) |
| --- | --- |
| TAAAGTACATGGACCGGTTTTCCCGGTAATCCGTATTTGTA (site TAAAGTGCTTA) | 0.204 |
| ATCCAAGCATGGACCGGTTTTCCCGGTAATCCGTATTTGAA (site ATCCAAGCTTT) | 1.29 |
| TTAAGTCCATGGACCGGTTTTCCCGGTAATCCGTATTTGTA (site TTAAGTCCTTA) | 1.44 |
| GAGGCACCATGGACCGGTTTTCCCGGTAATCCGTATTTGCA (site GCGGCACCTTG) | 0 |
| CGGGAGTCATGGACCGGTTTTCCCGGTAATCCGTATTTGAC (site CGGGAGTCTGC) | 1.66 |
| TAGCGAGCATGGACCGGTTTTCCCGGTAATCCGTATTTGAA (site TAGCGAGCTTT) | 1.41 |
| GGTCCATCATGGACCGGTTTTCCCGGTAATCCGTATTTGTA (site GGTCCAGCTTA) | 0.00308 |
| AGGTCCCCATGGACCGGTTTTCCCGGTAATCCGTATTTGTG (site AGGTTCCCTCA) | 0.00496 |
| AAATGAGCATGGACCGGTTTTCCCGGTAATCCGTATTTGGG (site AAATGAGCTCC) | 0.252 |
| GACTATCCATGGACCGGTTTTCCCGGTAATCCGTATTTGCT (site GATTATCCTAG) | 0 |
| TGCCAGGCATGGACCGGTTTTCCCGGTAATCCGTATTTGGT (site TGCTAGGCTAC) | 0.0336 |
| CAGTCAACATGGACCGGTTTTCCCGGTAATCCGTATTTGGG (site CAGTCTACTCC) | 0.0255 |
| AGCCTAACATGGACCGGTTTTCCCGGTAATCCGTATTTGGG (site AGCCTAACTCC) | 0.0227 |
| ACAGTATCATGGACCGGTTTTCCCGGTAATCCGTATTTGCA (site ACAGGGTCTTG) | 1.17 |
| ACACGTACATGGACCGGTTTTCCCGGTAATCCGTATTTGTC (site ACACGCACTGA) | 0.199 |
| ACTCGTGCATGGACCGGTTTTCCCGGTAATCCGTATTTGAC (site ACTCGTGCTGT) | 2.56 |
| GTTTGGACATGGACCGGTTTTCCCGGTAATCCGTATTTGAC (site GTTTGGACTGT) | 1.91 |
| GGCAATCCATGGACCGGTTTTCCCGGTAATCCGTATTTGAA (site GGTAATCCTTT) | 0.00354 |
| ACAGTATCATGGACCGGTTTTCCCGGTAATCCGTATTTGCA (site AGAGGATCTTG) | 0.0328 |
| TAGTCGACATGGACCGGTTTTCCCGGTAATCCGTATTTGGG (site TAGTCGACTCC) | 0.0301 |
| GCTGGCCCATGGACCGGTTTTCCCGGTAATCCGTATTTGAT (site GCTGGCCCTAT) | 0.00519 |
| ACAGTATCATGGACCGGTTTTCCCGGTAATCCGTATTTGCA (site ACAGTTGCTTG) | 0.0085 |
| CCCATATCATGGACCGGTTTTCCCGGTAATCCGTATTTGTC (site CCCATACCTGA) | 0.34 |
| CTACTAACATGGACCGGTTTTCCCGGTAATCCGTATTTGGA (site CTACTAACTTA) | 1.4 |
| TTAGCTACATGGACCGGTTTTCCCGGTAATCCGTATTTGTG (site TTAGCTCCTCA) | 0.00713 |
